Measured values: PubChem BioAssay AID330 (DTP/NCI, 2004)
“And” between values parts separate entries of the source, which are not always exact repeats. Equal values may be shown once. Inconclusive results and toxic doses are left out.

System: P388 leukemia ip, CD2F1 mice, survival T/C
Assay: NCI In Vivo Anticancer Drug Screen. Data for tumor model P388 Leukemia (intraperitoneal) in CD2F1 (CDF1) mice
Settings: endpoint: median survival time, higher = longer survival
In short: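 Mice carrying the transplanted tumor received test compound or vehicle. Survival was recorded in each group, and the value is the treated-group measurement divided by that of the vehicle-treated control group.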

[1] = dose: 25.0 mg/kg/injection, schedule: Q01DX005 (ip), vehicle: saline
[2] = dose: 50.0 mg/kg/injection, schedule: Q01DX005 (ip), vehicle: saline
[3] = dose: 100.0 mg/kg/injection, schedule: Q01DX005 (ip), vehicle: saline
[4] = dose: 200.0 mg/kg/injection, schedule: Q01DX005 (ip), vehicle: saline
[5] = dose: 50.0 mg/kg/injection, schedule: Q01DX005 (ip), vehicle: saline with Tween-80
[6] = dose: 100.0 mg/kg/injection, schedule: Q01DX005 (ip), vehicle: saline with Tween-80
[7] = dose: 200.0 mg/kg/injection, schedule: Q01DX005 (ip), vehicle: saline with Tween-80
[8] = dose: 50.0 mg/kg/injection, schedule: Q01DX009 (ip), vehicle: Klucel (hydroxypropylcellulose) (HPC)
[9] = dose: 100.0 mg/kg/injection, schedule: Q01DX009 (ip), vehicle: Klucel (hydroxypropylcellulose) (HPC)
[10] = dose: 200.0 mg/kg/injection, schedule: Q01DX009 (ip), vehicle: Klucel (hydroxypropylcellulose) (HPC)
[11] = dose: 50.0 mg/kg/injection, schedule: Q01DX005 (ip), vehicle: Klucel (hydroxypropylcellulose) (HPC)
[12] = dose: 100.0 mg/kg/injection, schedule: Q01DX005 (ip), vehicle: Klucel (hydroxypropylcellulose) (HPC)
[13] = dose: 200.0 mg/kg/injection, schedule: Q01DX005 (ip), vehicle: Klucel (hydroxypropylcellulose) (HPC)
[14] = dose: 50.0 mg/kg/injection, schedule: Q01DX009 (ip), vehicle: saline with Tween-80
[15] = dose: 100.0 mg/kg/injection, schedule: Q01DX009 (ip), vehicle: saline with Tween-80
[16] = dose: 60.0 mg/kg/injection, schedule: Q01DX005 (ip), vehicle: Klucel (hydroxypropylcellulose) (HPC)
[17] = dose: 120.0 mg/kg/injection, schedule: Q01DX005 (ip), vehicle: Klucel (hydroxypropylcellulose) (HPC)
[18] = dose: 240.0 mg/kg/injection, schedule: Q01DX005 (ip), vehicle: Klucel (hydroxypropylcellulose) (HPC)
[19] = dose: 200.0 mg/kg/injection, schedule: Q01DX009 (ip), vehicle: saline with Tween-80

In the case of `CN(C)C1C(=O)C(C(=O)NCN2CCN(CCO)CC2)=C(O)C2(O)C(=O)C3=C(O)c4c(O)cccc4C(C)(O)C3CC12` (stereo unspecified), the T/C [1] is reported as 104 % of control, the T/C [2] is reported as 102 % of control and the T/C [3] is reported as 104 % of control. The T/C [4] was 95 % of control.
For `C=CC1CC(NC(=O)c2ccccc2)C(=O)O1` (stereo unspecified), the T/C [5] was 101 % of control, the T/C [6] was 104 % of control and the T/C [7] was 99 % of control.
`FC(F)(F)c1nc2nc(Cl)c(Cl)nc2[nH]1` was tested, and the T/C (dose: 25.0 mg/kg/injection, schedule: Q04DX003 (ip), vehicle: other) was 100 % of control and the T/C (dose: 50.0 mg/kg/injection, schedule: Q04DX003 (ip), vehicle: other) was 109 % of control.
For `CCCCCCCCCCCCCCCCN1CCS(=O)(=O)CC1`, the T/C [8] was 108 % of control, the T/C [9] was 100 % of control and 98 % of control and the T/C [10] was 101 % of control and 88 % of control.
For `CN(C)[C@@H]1C(=O)C(C(N)=O)=C(O)[C@@]2(O)C(=O)C3=C(O)c4c(O)cccc4C[C@H]3C[C@@H]12`, the T/C (dose: 7.5 mg/kg/injection, schedule: Q01DX010 (ip), vehicle: saline) was 115 % of control and the T/C (dose: 15.0 mg/kg/injection, schedule: Q01DX010 (ip), vehicle: saline) was 120 % of control.
For `NC(=S)N=Nc1c(O)n(C2OC(CO)C(O)C(O)C2O)c2ccccc12` (stereo unspecified), the T/C (dose: 32.0 mg/kg/injection, schedule: Q01DX002 (ip), vehicle: saline with Tween-80) was 109 % of control and 112 % of control, the T/C (dose: 64.0 mg/kg/injection, schedule: Q01DX002 (ip), vehicle: saline with Tween-80) was 114 % of control and 116 % of control and the T/C (dose: 128.0 mg/kg/injection, schedule: Q01DX002 (ip), vehicle: saline with Tween-80) was 98 % of control and 90 % of control.
With `Cc1cc[n+](CCc2c[nH]c3ccccc23)cc1C` the T/C (dose: 12.5 mg/kg/injection, schedule: Q01DX005 (ip), vehicle: saline) was 100 % of control, the T/C [1] was 97 % of control and the T/C [2] was 105 % of control and 95 % of control.
`S=c1nc[nH]c2cc3cn[nH]c3cc12` was tested, and the T/C [5] was 94 % of control, the T/C [6] was 96 % of control and the T/C [7] was 92 % of control.
With `CC(C(=O)S)C(O)(c1ccccc1)c1ccccc1` (stereo unspecified) the T/C (dose: 25.0 mg/kg/injection, schedule: Q04DX003 (ip), vehicle: Klucel (hydroxypropylcellulose) (HPC)) was 98 % of control, the T/C (dose: 50.0 mg/kg/injection, schedule: Q04DX003 (ip), vehicle: Klucel (hydroxypropylcellulose) (HPC)) was 101 % of control and the T/C (dose: 100.0 mg/kg/injection, schedule: Q04DX003 (ip), vehicle: Klucel (hydroxypropylcellulose) (HPC)) was 107 % of control and 93 % of control.
In the case of `NC1(C(=O)O)CCSCC1`, the T/C [11] is reported as 101 % of control, the T/C [12] is reported as 102 % of control and the T/C [13] is reported as 90 % of control.
With `Cc1ccc(CNc2ccc([N+](=O)[O-])cc2)cc1` the T/C (dose: 50.0 mg/kg/injection, schedule: Q04DX003 (ip), vehicle: saline with Tween-80) was 100 % of control, the T/C (dose: 100.0 mg/kg/injection, schedule: Q04DX003 (ip), vehicle: saline with Tween-80) was 100 % of control and the T/C (dose: 200.0 mg/kg/injection, schedule: Q04DX003 (ip), vehicle: saline with Tween-80) was 95 % of control.
For `CCC(=O)Nc1ccc(N=NN(C)C)cc1`, the T/C (dose: 6.25 mg/kg/injection, schedule: Q04DX002 (ip), vehicle: Klucel (hydroxypropylcellulose) (HPC)) was 97 % of control, the T/C (dose: 12.5 mg/kg/injection, schedule: Q04DX002 (ip), vehicle: Klucel (hydroxypropylcellulose) (HPC)) was 106 % of control and the T/C (dose: 25.0 mg/kg/injection, schedule: Q04DX002 (ip), vehicle: Klucel (hydroxypropylcellulose) (HPC)) was 100 % of control and 109 % of control.
In the case of `CN(C)C1C(=O)C(C(N)=O)=C(O)C2(O)C(=O)C3=C(O)c4c(O)cccc4C(C)(O)C3CC12.[Cl][Sb]([Cl])[Cl]` (stereo unspecified), the T/C [5] is reported as 119 % of control and the T/C [6] is reported as 108 % of control.
In the case of `CC(C)SC(=S)Nc1cc(Cl)c(Cl)cc1Cl`, the T/C [14] is reported as 98 % of control and the T/C [15] is reported as 102 % of control.
`CCOC(=O)C1=C(C)O/C(=C/c2ccccc2)C1=O` was tested, and the T/C [8] was 112 % of control, the T/C [9] was 102 % of control and the T/C [10] was 92 % of control.
For `CCCCc1c[nH]n(C(N)=NCCSCc2nc[nH]c2C)c1=O`, the T/C [16] was 94 % of control, the T/C [17] was 98 % of control and the T/C [18] was 93 % of control.
With `COc1cc2ccccc2c2cc([N+](=O)[O-])oc12` the T/C [11] was 110 % of control, the T/C [12] was 101 % of control and the T/C [13] was 110 % of control.
In the case of `Cc1ccc(S(=O)(=O)NCCN(CCN(CCNS(=O)(=O)c2ccc(C)cc2)S(=O)(=O)c2ccc(C)cc2)S(=O)(=O)c2ccc(C)cc2)cc1`, the T/C [14] is reported as 101 % of control, the T/C [15] is reported as 92 % of control and the T/C [19] is reported as 90 % of control.
For `CC1CC=C2C=C(Cl)C=CC2(C)C1C` (stereo unspecified), the T/C [5] was 98 % of control, the T/C [6] was 96 % of control and the T/C [7] was 91 % of control.
`CC1(c2ccc(Cl)cc2)OC(=O)C(=Cc2ccc([N+](=O)[O-])s2)C(=O)O1` (stereo unspecified) was tested, and the T/C [15] was 122 % of control.
With `N#CCCN(N)S(=O)(=O)c1ccccc1` the T/C [11] was 99 % of control, the T/C [12] was 99 % of control and the T/C [13] was 98 % of control.
`c1ccc(C23CCCCC2=Nc2ccccc23)cc1` (stereo unspecified) was tested, and the T/C [2] was 104 % of control, the T/C [3] was 105 % of control and the T/C [4] was 107 % of control.
`CCC1(O)C(=O)c2ccccc2N(c2ccccc2)C1=O` (stereo unspecified) was tested, and the T/C [16] was 91 % of control, the T/C [17] was 90 % of control and the T/C [18] was 90 % of control.
With `CNC(=O)OCc1cn(-c2ccc(Cl)c(Cl)c2)nc1COC(=O)NC` the T/C (dose: 0.05 mg/kg/injection, schedule: Q01DX009 (ip), vehicle: distilled water + Tween-80) was 103 % of control, the T/C (dose: 0.1 mg/kg/injection, schedule: Q01DX009 (ip), vehicle: distilled water + Tween-80) was 86 % of control and the T/C (dose: 0.2 mg/kg/injection, schedule: Q01DX009 (ip), vehicle: distilled water + Tween-80) was 94 % of control. The T/C (dose: 0.4 mg/kg/injection, schedule: Q01DX009 (ip), vehicle: distilled water + Tween-80) was 99 % of control, the T/C (dose: 3.12 mg/kg/injection, schedule: Q01DX009 (ip), vehicle: distilled water + Tween-80) was 88 % of control and the T/C (dose: 25.0 mg/kg/injection, schedule: Q01DX009 (ip), vehicle: distilled water + Tween-80) was 89 % of control. For the same molecule, the T/C (dose: 50.0 mg/kg/injection, schedule: Q01DX009 (ip), vehicle: distilled water + Tween-80) was 92 % of control and the T/C (dose: 100.0 mg/kg/injection, schedule: Q01DX009 (ip), vehicle: distilled water + Tween-80) was 90 % of control.
`COc1cc(C2=NCCc3cc4c(cc32)OCO4)cc(OC)c1OC` was tested, and the T/C [2] was 100 % of control and 101 % of control, the T/C [3] was 105 % of control and 118 % of control and the T/C [4] was 152 % of control.
In the case of `N#Cc1cn(C2OC(CO)C(O)C2O)c2ncnc(Cl)c12` (stereo unspecified), the T/C (dose: 60.0 mg/kg/injection, schedule: Q01DX005 (ip), vehicle: saline with Tween-80) is reported as 151 % of control and 174 % of control and the T/C (dose: 120.0 mg/kg/injection, schedule: Q01DX005 (ip), vehicle: saline with Tween-80) is reported as 111 % of control.
For `NCCSCC(N)C(=O)O` (stereo unspecified), the T/C (dose: 25.0 mg/kg/injection, schedule: Q01DX009 (ip), vehicle: saline) was 102 % of control, the T/C (dose: 50.0 mg/kg/injection, schedule: Q01DX009 (ip), vehicle: saline) was 103 % of control and the T/C (dose: 100.0 mg/kg/injection, schedule: Q01DX009 (ip), vehicle: saline) was 99 % of control. The T/C (dose: 200.0 mg/kg/injection, schedule: Q01DX009 (ip), vehicle: saline) was 109 % of control.
With `CC(C)(C)C(C)(C)c1ccc(OCCSCCOc2ccc(C(C)(C)C(C)(C)C)cc2)cc1` the T/C [14] was 92 % of control, the T/C [15] was 90 % of control and the T/C [19] was 87 % of control.
`C1=NC(c2ccccc2)C(/C=C/c2ccccc2)N=C1c1ccccc1` (stereo unspecified) was tested, and the T/C (dose: 100.0 mg/kg/injection, schedule: Q01DX001 (ip), vehicle: saline) was 96 % of control, the T/C (dose: 200.0 mg/kg/injection, schedule: Q01DX001 (ip), vehicle: saline) was 93 % of control and the T/C (dose: 400.0 mg/kg/injection, schedule: Q01DX001 (ip), vehicle: saline) was 86 % of control.
`O=C(O)CCCOC(C[N+](=O)[O-])C(Cl)(Cl)Cl` (stereo unspecified) was tested, and the T/C [14] was 95 % of control, the T/C [15] was 100 % of control and the T/C [19] was 96 % of control.
`Nc1ccc(N=Nc2ccc3cc4ccc(N=Nc5ccc(N)nc5N)cc4nc3c2)c(N)n1` was tested, and the T/C (dose: 6.25 mg/kg/injection, schedule: Q01DX005 (ip), vehicle: saline with Tween-80) was 92 % of control, the T/C (dose: 12.5 mg/kg/injection, schedule: Q01DX005 (ip), vehicle: saline with Tween-80) was 100 % of control and 106 % of control and the T/C (dose: 25.0 mg/kg/injection, schedule: Q01DX005 (ip), vehicle: saline with Tween-80) was 100 % of control and 116 % of control. For the same molecule, the T/C [5] was 95 % of control, the T/C [6] was 106 % of control and the T/C [7] was 109 % of control.
